Assay results reported in patent US9487530B2, “Transient protection of normal cells during chemotherapy” (G1 Therapeutics, Inc., priority 2013, dated 2016).
Where two headings read alike, the source gives them in different places. One block for each compound: values may come before it.

Experiments:
[1] = Mouse pharmacokinetics, oral gavage and intravenous; format: in vivo
HSPCs = experiment: Bone marrow HSPC proliferation by EdU incorporation and flow cytometry; format: in vivo, mouse; conditions: for EdU incorporation into HSPCs compared to control: 150 mg/kg oral gavage, 12 and 24 hours, FIG. 6A
Procedure: Mice were then sacrificed at the indicated times (0, 12, 24, 36, or 48 hours following compound administration), and bone marrow was harvested (n=3 mice per time point), as previously described (Johnson et al. J. Clin. Invest. (2010) 120(7), 2528-2536). Four hours before the bone marrow was harvested, mice were treated with 100 μg of EdU by intraperitoneal injection (Invitrogen). Bone marrow mononuclear cells were harvested and immunophenotyped using previously described methods and percent EdU positive cells were then determined (Johnson et al. J. Clin. Invest. (2010) 120(7), 2528-2536). In brief, HSPCs were identified by expression of lineage markers (Lin−), ScaI (S+), and c-Kit (K+).
Four hours before animals were sacrificed and the bone marrow was harvested, mice were treated with 100 μg of EdU by intraperitoneal injection. Three mice per group were sacrificed at 12 hours and the remaining three animals per group were sacrificed at 24 hours. Results are shown in FIG. 6A as the ratio of EdU positive cells for treated animals at 12 or 24 hour time points compared to control.
Further experiments were completed with Compound T examining dose response and longer periods of compound treatment. […] […].
Both compounds were administered at 150 mg/kg by oral gavage. One hour prior to harvesting bone marrow, EdU was IP injected to label cycling cells. Bone marrow was harvested at 12, 24, 36, and 48 hours after compound treatment and the percentage of EdU positive HSPC cells was determined at each time point.

bone marrow progenitors = experiment: Carboplatin-induced cytotoxicity in the bone marrow; format: in vivo, mouse; conditions: 150 mg/kg oral gavage plus 90 mg/kg carboplatin i.p.; 24 hours
Procedure: To assess the effect of transient CDK4/6 inhibition by Compound GG on carboplatin-induced cytotoxicity in the bone marrow, FVB/n mice (n=3 per group) were treated with vehicle control, 90 mg/kg carboplatin by intraperitoneal injection, or 150 mg/kg Compound GG by oral gavage plus 90 mg/kg carboplatin by intraperitoneal injection. 24 hours after treatment bone marrow was harvested and the percent of cycling bone marrow progenitors was measured by EdU incorporation as explained earlier. […] EdU incorporation in control animals was normalized to 100% and compared to EdU incorporation for bone marrow from carboplatin treated animals or carboplatin and Compound GG treated animals.

[2] = test system: RB-negative SCLC cell lines (H69, H82, H209, H345, NCI417, SHP-77); experiment: EdU proliferation, RB-negative SCLC cell lines; format: cell-based, human; conditions: 24 hours treatment
Procedure: (§1) The effect of Cdk4/6 inhibition on proliferation was measured by EdU incorporation. An RB-intact, Cdk4/6-dependent cell line (WM2664 or tHS68) and a panel of RB-negative SCLC cell lines (H69, H82, H209, H345, NCI417, or SHP-77) were analyzed for growth inhibition by the various CDK4/6 inhibitors.

[3] = test system: Rb-positive cell line (WM2664 or tHS68); experiment: EdU proliferation, RB-intact Cdk4/6-dependent cell line; format: cell-based; conditions: 24 hours treatment
Procedure: as §1

[4] = test system: HSPC (LKS+) and myeloid progenitor cells (LKS-); conditions: single 150 mg/kg oral gavage; FIG. 5; cited from earlier work
[5] = in humans; cited from earlier work
[6] = test system: Renal Proximal Tubule Epithelial Cells (Rb-positive); experiment: Cellular wash-out experiment, renal proximal tubule epithelial cells; format: cell-based, human; conditions: 300 nM; compared to cells treated with compounds T, Q, GG, or U
Procedure: Alternatively, the same experiment was done using normal Renal Proximal Tubule Epithelial Cells (Rb-positive) obtained from American Type Culture Collection (ATCC, Manassas, Va.). Cells were grown in an incubator at 37° C. in a humidified atmosphere of 5% CO2 in Renal Epithelial Cell Basal Media (ATCC) supplemented with Renal Epithelial Cell Growth Kit (ATCC) in 37° C. humidified incubator.
Upon harvesting cells, samples were stained with propidium iodide staining solution and samples run on Dako Cyan Flow Cytometer. The fraction of cells in G0-G1 DNA cell cycle versus the fraction in S-phase DNA cell cycle was determined using FlowJo 7.2.2 analysis.

[7] = PD0332991 pharmacokinetics and HSPC arrest in humans; format: in vivo, human; conditions: single administration
Procedure: When calculated half-life was longer than the duration of the experiment, the half-life was expressed as >the longest incubation time. The calculated half-life is also listed in parentheses. […] The timely resumption of cellular proliferation is necessary for tissue repair, and therefore an overly long period of arrest is undesirable in healthy cells such as HSPCs. The characteristics of a CDK4/6 inhibitor that dictate its arresting duration are its pharmacokinetic (PK) and enzymatic half-lives. Once initiated, a G1-arrest in vivo will be maintained as long as circulating compound remains at an inhibitory level, and as long as the compound engages the enzyme. […] […]. […] […]. These observations may explain the severe granulocytopenia seen with PD0332991 in the clinic.

[8] = in mice; cited from earlier work
CDK4/CycD1 = target: T1, CDK4/CycD1 (Homo sapiens, UniProt P11802); experiment: CDK4/cyclinD1 kinase assay (Nanosyn, Caliper microfluidic); format: biochemical
T1 construct: Nanosyn (ran the assay as a service)
T1 sequence (P11802 whole entry, species assumed): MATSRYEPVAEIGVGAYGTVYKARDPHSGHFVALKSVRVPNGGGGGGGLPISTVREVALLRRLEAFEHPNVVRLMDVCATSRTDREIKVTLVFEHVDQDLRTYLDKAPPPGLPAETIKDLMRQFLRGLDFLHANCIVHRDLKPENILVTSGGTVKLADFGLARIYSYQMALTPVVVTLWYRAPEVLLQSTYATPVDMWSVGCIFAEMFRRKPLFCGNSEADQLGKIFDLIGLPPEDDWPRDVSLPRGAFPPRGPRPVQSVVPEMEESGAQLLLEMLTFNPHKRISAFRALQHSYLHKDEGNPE
T1 sequence (P24385 whole entry partner, species assumed): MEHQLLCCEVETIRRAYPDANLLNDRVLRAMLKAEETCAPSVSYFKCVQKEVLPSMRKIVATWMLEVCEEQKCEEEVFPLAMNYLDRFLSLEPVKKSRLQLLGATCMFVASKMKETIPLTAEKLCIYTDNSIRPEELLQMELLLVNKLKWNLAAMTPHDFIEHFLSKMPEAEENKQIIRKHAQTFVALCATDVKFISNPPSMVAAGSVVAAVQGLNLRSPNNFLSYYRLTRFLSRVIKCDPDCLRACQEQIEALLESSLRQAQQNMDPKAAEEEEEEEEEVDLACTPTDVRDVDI
Procedure: (§2) Selected compounds disclosed herein were tested in CDK4/cyclinD1, CDK6/CycD3 CDK2/CycA and CDK2/cyclinE kinase assays by Nanosyn (Santa Clara, Calif.) to determine their inhibitory effect on these CDKs. The assays were performed using microfluidic kinase detection technology (Caliper Assay Platform). The compounds were tested in 12-point dose-response format in singlicate at Km for ATP. Phosphoacceptor substrate peptide concentration used was 1 μM for all assays and Staurosporine was used as the reference compound for all assays. Specifics of each assay are as described below:
CDK4/CyclinD1: Enzyme concentration: 1 nM; ATP concentration: 200 μM; Incubation time: 10 hr.

CDK2/CycE = target: T2, CDK2/CycE (Homo sapiens, UniProt P24941); experiment: CDK2/cyclinE kinase assay (Nanosyn, Caliper microfluidic); format: biochemical
T2 construct: Nanosyn (ran the assay as a service)
Procedure: as §2, with “assays.” for “assays. Specifics of each assay are as described below:”

SMILES: CC(C)N1CCN(c2ccc(Nc3ncc4cc5n(c4n3)C3(CCCCC3)CNC5=O)nc2)CC1 [GG, 2′-((5-(4-isopropylpiperazin-1-yl)pyridin-2-yl)amino)-7′,8′-dihydro-6′H-spiro[cyclohexane-1,9′-pyrazino[1′,2′:1,5]pyrrolo[2,3-d]pyrimidin]-6′-one]
- cycling bone marrow progenitors (EdU incorporation) (bone marrow progenitors): significant protection of bone marrow progenitors
- EdU incorporation into HSPCs compared to control (HSPCs): reduction in EdU incorporation at 12 hours which was starting to return to normal at 24 hours
- F (oral bioavailability) [1]: 52%
- growth (cells in S-phase by EdU) [2]: does not affect the growth
- proliferation (cells in S-phase by EdU) [3]: inhibits

SMILES: CC(=O)c1c(C)c2cnc(Nc3ccc(N4CCNCC4)cn3)nc2n(C2CCCC2)c1=O [PD0332991, 6-acetyl-8-cyclopentyl-5-methyl-2-(5-piperazin-1-yl-pyridin-2-ylammino)-8H-pyrido-[2,3-d]-pyrimidin-7-one]
- duration of sustained reduction in HSPC and myeloid progenitor cell EdU incorporation [4]: greater than 36 hours
- time until HSPC and myeloid progenitor cells return to baseline cell division [4]: 48 h
- duration of sustained reduction in HSPCs (HSPCs; single 150 mg/kg oral dose, FIG. 7): greater than 36 hours
- PK half-life [5]: 27 h
- time to return to baseline levels of cell division after wash out [6]: significantly longer
- duration of cell cycle arrest of HSPC [7]: approximately one week
- growth (cells in S-phase by EdU) [2]: does not affect the growth
- proliferation (cells in S-phase by EdU) [3]: inhibits
- PK half-life [8]: 6 h

Now from value to compound, other results behind:

- F (oral bioavailability) [1]: 67%
SMILES: O=C1NCC2(CCCCC2)n2c1cc1cnc(Nc3ccc(N4CCC(N5CCOCC5)CC4)cn3)nc12 [U, 2′-((5-(4-morpholinopiperidin-1-yl)pyridin-2-yl)amino)-7′,8′-dihydro-6′H-spiro[cyclohexane-1,9′-pyrazino[1′,2′:1,5]pyrrolo[2,3-d]pyrimidin]-6′-one]

- oral bioavailability [1]: low
SMILES: O=C1NCC2(CCCCC2)n2c1cc1cnc(Nc3ccc(N4CCNCC4)cn3)nc12 [Q, 2′-((5-(piperazin-1-yl)pyridin-2-yl)amino)-7′,8′-dihydro-6′H-spiro[cyclohexane-1,9′-pyrazino[1′,2′:1,5]pyrrolo[2,3-d]pyrimidin]-6′-one]
- EdU incorporation into HSPCs compared to control (HSPCs): some reduction at 12 hours and started to return to baseline at 24 hours

- IC50 (CDK4/CycD1): 7.4 nM
- IC50 (CDK2/CycE): 4380 nM
SMILES: CCC(C)[C@@H]1CNC(=O)c2cc3cnc(Nc4ccc(N5CCNCC5)cn4)nc3n21 (stereo partly shown) [VVV]
